Test [1] relates to p21/Waf-1 knockdown C4-2 cells. As to the kind of experiment: Cell death of p21/Waf-1 knockdown C4-2 cells treated with drug. The format is cell-based.
For test [2], the system named is C4-2 cells. As to the kind of experiment: MTS assay, growth inhibition and cytotoxicity, virus alone or with adriamycin. In kind it is cell-based. The following applies: adriamycin alone 0.1 μg/ml; by 72 hours. The procedure: 3-(4,5)-Dimethylthiazol-2-yl)-5-(3-carboxy-methoxyphenyl)-2-(4-sulfophenyl)-2H-tetrazolium (MTS) assay: The metabolic viability of the cells was monitored using a MTS assay kit (CellTiter 96) from Promega (Madison, Wis.). Briefly cells are seeded onto 96-well plates and cultured in the presence of test agents for indicated time intervals. A mixture of MTS and phenazine methosulfate (an electron-coupling reagent; final concentrations 333 μg/ml and 25 μM, respectively) is added, and cells are incubated for 30 minutes at 37° C. Formazan formed from the reduction of MTS is quantified by measurement of absorbance of the medium at 490 nm using a microplate reader (All data have been normalized to the background signals).
Combinatory studies of Adriamycin with Ad5-RV004.21 or Ad5-RV004 virus in C4-2 cells: Combination treatment of viruses with radiation or chemotherapy hold promise as a new strategy for cancer treatment. However, there are reports of attenuated cytotoxicity of CRAds when combined with chemotherapies (e.g., doxorubicin). […] Cell cytotoxicity is measured by MTS assay after 72 hours of treatment and followed every 24 hours for a total of 7 days. […] The predicted value for the combinatory effect can be calculated and is given by the dotted gray line.
For orientation: Tetrazolium assays rely on reduction of a dye to a coloured formazan, in cell work by metabolically active cells.

Molecules are shown by their SMILES.

In the case of `COc1cccc2c1C(=O)c1c(O)c3c(c(O)c1C2=O)C[C@@](O)(C(=O)CO)C[C@@H]3O[C@H]1C[C@H](N)[C@H](O)[C@H](C)O1` [adriamycin], the “cell death in p21/Waf-1 knockdown C4-2 cells compared to the wild type cell lines” value in test [1] was “increase in cell death”. The C4-2 cells killed in test [2] is approximately 50%.

The values above are taken from US8859287B2, “Compositions and methods for treatment of cancer using tissue-specific oncolytic adenoviruses” (The Johns Hopkins University, priority 2009, dated 2014).
